Laboratory results taken from US7799776B2, “Indoleamine 2,3-dioxygenase (IDO) inhibitors” (The University of British Columbia, priority 2004, dated 2010).
Read-outs that look alike come from different tables or passages of the source.

What was measured:
recombinant human IDO = recombinant human IDO (Homo sapiens, UniProt P14902); assay: IDO inhibition kinetics (N-formylkynurenine formation, absorbance at 321 nm); format: biochemical; settings: for manner of IDO inhibition: assay repeated using differing concentrations
Chain of recombinant human IDO (P14902 whole entry): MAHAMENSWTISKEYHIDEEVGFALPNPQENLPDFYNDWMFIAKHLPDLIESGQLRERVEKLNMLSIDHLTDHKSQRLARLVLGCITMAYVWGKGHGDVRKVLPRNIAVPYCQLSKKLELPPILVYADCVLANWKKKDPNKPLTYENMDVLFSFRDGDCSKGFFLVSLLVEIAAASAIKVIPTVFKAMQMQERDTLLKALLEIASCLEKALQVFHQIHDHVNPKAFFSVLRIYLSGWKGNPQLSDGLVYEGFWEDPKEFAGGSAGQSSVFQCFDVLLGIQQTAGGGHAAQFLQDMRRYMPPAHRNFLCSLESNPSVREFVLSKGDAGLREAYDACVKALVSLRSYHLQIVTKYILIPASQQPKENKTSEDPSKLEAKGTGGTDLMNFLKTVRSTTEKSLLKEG
Protocol: The following reaction (Sono, M., Cady, S. G. Biochemistry 28, 5392-5399 (1989)) was used to measure the kinetics of inhibition of IDO using compounds of this invention as well as other compounds for comparison, as listed in Table 4.
A solution of 0.1M potassium phosphate buffer (pH 6.5; optimal at 37° C.), 25 μM methylene blue, 200 μg/ml of catalase, 10 mM ascorbic acid, 50 nM of recombinant human IDO and 100 μM L-Tryptophan was prepared. The rate of product formation (Δε321=3.75 mM^−1 cm^−1 for N-formylkynurenine) was determined from the slope of the initial linear absorbance increase at 321 nm as a function of time.

purified, human IDO = purified, human IDO (Homo sapiens, UniProt P14902); assay: In vitro IDO activity assay (kynurenine adduct detected at 480 nm) used for bioassay guided fractionation; format: biochemical; settings: extracts and compounds identified by bioassay guided fractionation
Chain of purified, human IDO (P14902 whole entry): as above
Protocol: Various in vitro assays (see for example Takikawa, et al. J. Biol. Chem. 263, 2041-2048 (1988)) may be used to screen (e.g. high-throughput screening) or test reaction products or extracts obtained natural sources for IDO inhibition activity or to determine the kinetics of IDO inhibition. For example, IDO activity may be assayed by means of a reaction mixture (100 microlitre total volume) containing potassium phosphate buffer (50 mM, pH 6.5), ascorbic acid (20 mM), catalase (200 microgram/mL), methylene blue ([…]), L-tryptophan ([…]), and purified, human IDO. The reaction shown below may be allowed to proceed for 40 min (37° C.) and stopped by the addition of 20 microlitre of 30% (w/v) trichloroacetic acid. The N-formyl kynurenine formed from tryptophan in the reaction mixture during this time is then converted to kynurenine by incubating the reaction mixture at 65° C. for 15 minutes. After cooling the reaction mixture to room temperature, an equal volume of 2% (w/v) p-dimethylamino benzaldehyde in acetic acid may be added to convert the kynurenine present in the reaction mixture to a yellow adduct that can be detected at 480 nm. A standard curve for this latter reaction may be constructed with the use of standard solutions prepared from authentic L-kynurenine. Protein concentration may be determined by the Coomassie blue dye-binding method of Bradford with bovine serum albumin as a standard. (Takikawa et al, J. Biol. Chem. 263, 2041-2048).
Crude extracts from the marine hydroid Garveia annula collected in British Columbia and the sponge Xestospongia sp. collected in Papua New Guinea show activity in the aforementioned assay. […] Annulins A and B, garveatins A and C, and 2-hydroxygarvin A have been previously reported (Fahy et al J. Org. Chem., (1985), 50, 1149-50; J. Org. Chem., (1986), 51, 57-61; J. Org. Chem., (1986), 51, 5145-48; Can. J. Chem., (1987), 65, 376-83), but were not known to be IDO inhibitors. Annulin C, Garvalone C and garveatins E and F are novel. […] Xestoquinone, adociaquinone A, and adociaquinone B had been previously isolated from sponge extracts and their structures have been reported in the literature (Schmitz and Bloor J. Org. Chem. (1988), 53, 3922-3925), but were not known as IDO inhibitors.

IDO = IDO (Oryctolagus cuniculus, UniProt G1SJI2); settings: tryptophan (substrate) analogues; Sono and Cady 1989, Cady and Sono 1991; cited from earlier work
Chain of IDO (G1SJI2 1-402): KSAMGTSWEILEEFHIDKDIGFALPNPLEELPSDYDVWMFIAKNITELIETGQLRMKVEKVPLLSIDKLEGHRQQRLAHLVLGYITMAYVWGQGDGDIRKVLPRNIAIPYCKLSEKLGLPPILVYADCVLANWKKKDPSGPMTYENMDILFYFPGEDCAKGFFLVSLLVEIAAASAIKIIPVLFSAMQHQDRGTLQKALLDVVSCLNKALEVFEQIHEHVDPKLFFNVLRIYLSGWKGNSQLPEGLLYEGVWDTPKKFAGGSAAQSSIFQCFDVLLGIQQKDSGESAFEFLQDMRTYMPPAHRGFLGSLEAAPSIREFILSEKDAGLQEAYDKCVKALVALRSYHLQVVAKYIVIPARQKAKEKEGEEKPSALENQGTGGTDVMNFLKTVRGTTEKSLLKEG

[1] = 50 nM recombinant human IDO, 100 μM L-Tryptophan, pH 6.5, read-out: Ki

Row | Ki (recombinant human IDO; [1]) [µM] | IDO inhibition activity (qualitative) (purified, human IDO) | Compound | other results
1 | 42 |  | O=C1c2ccccc2C(=O)c2c1ccc(O)c2O [Alizarin, reference compound] | 
2 | > 5000 |  | Oc1ccc(O)cc1 [Dihydroquinone, reference compound] | 
3 | 0.123 | active IDO inhibitors | CCc1c(C)cc2c(c1O)C(=O)C1=C(C2=O)C(C)(C)C(=O)C(C)(C(=O)OC)O1 (centres unmarked) [Annulin B] | 
4 | 0.086 | active IDO inhibitors | CC12CCCc3coc(c31)C(=O)c1cc3c(cc12)C(=O)C1=C(C3=O)S(=O)(=O)CCN1 (centres unmarked) [Adociaquinone A] | 
5 | 2.3 | active IDO inhibitors | CCCc1c(C(=O)OC)c(OC)cc2cc3c(c(O)c12)C(=O)C(C)(O)C(=O)C3(C)C (centres unmarked) [2-Hydroxygarvin A] | 
6 | 0.694 | active IDO inhibitors | CCc1c(C)cc2c(c1O)C(=O)C1=C(C2=O)C(C)(C)OC1(O)C(=O)OC (centres unmarked) [Annulin A] | 
7 | 0.144 | active IDO inhibitors | CCc1c(C)cc2c(c1O)C(=O)C1=C(C2=O)C(C)(C)OC1(OC)C(=O)OC (centres unmarked) [Annulin C] | manner of IDO inhibition (recombinant human IDO): non-competitive
8 | 3.2 | active IDO inhibitors | CC(=O)c1c(C)cc2cc3c(c(O)c2c1O)C(=O)C(C)=C(O)C3(C)C [Garveatin A] | 
9 | 46000 |  | Doxorubicin [reference compound] | 
10 |  |  | Cn1cc(C[C@H](N)C(=O)O)c2ccccc21 [1-methyl-L-tryptophan (1MT), 1-methyl-L-tryptophan] | manner of IDO inhibition (IDO): competitive inhibitors
11 | 1110 |  | O=c1ccc2ccccc2o1 [Coumarin, reference compound] | 
12 | 3.1 | active IDO inhibitors | CCC1=C(C)C(=O)c2cc3c(c(O)c2C1=O)C(=O)C(C)=C(O)C3(C)C [Garveatin E] | 
13 | ~2100 |  | CC1Cc2c(c(O)cc3cc4c(c(O)c23)OC(C)(C)C4(C)C)C(=O)O1 (centres unmarked) [Garvin C] | 
14 | 1.42 | active IDO inhibitors | CCc1c(C)cc2cc3c(c(O)c2c1O)C(=O)C(C)(O)C(=O)C3(C)C (centres unmarked) [Garveatin F] | 
15 | 0.181 | active IDO inhibitors | CC12CCCc3coc(c31)C(=O)c1cc3c(cc12)C(=O)C=CC3=O (centres unmarked) [Xestoquinone] | 
16 | 1.18 | active IDO inhibitors | COc1c(C(C)=O)c(C)cc2cc3c(c(O)c12)C(=O)C(C)(C)C(=O)C3(C)C [Garveatin C] | 
17 | 1.25 |  | COC(=O)c1c(C)cc2cc3c(c(O)c2c1OC)C(=O)C(C)(CC(C)=O)C(=O)C3(C)C (centres unmarked) [Garvalone C] | 
18 | 100 |  | O=C1C=C(O)C(=O)c2ccccc21 | 
19 | 0.53 |  | COC1=CC(=O)c2ccccc2C1=O | 
20 |  |  | NC(Cc1coc2ccccc12)C(=O)O (racemic) [beta-(3-benzofuranyl)-DL-alanine] | manner of IDO inhibition (IDO): competitive inhibitors
21 |  |  | O=C1C(Cl)=C(Cl)C(=O)c2ccccc21 [Dichlone, reference compound] | Ki (recombinant human IDO): 0.045 µM
22 | > 40 |  | CC1=C(C/C=C(\C)CCC[C@H](C)CCC[C@H](C)CCCC(C)C)C(=O)c2ccccc2C1=O [Vitamin K1, reference compound] | 

Row | Compound | Ki (recombinant human IDO; [1]) [µM] | IDO inhibition activity (qualitative) (purified, human IDO) | other results
23 | CC(=O)CC(c1ccccc1)c1c(O)c2ccccc2oc1=O (centres unmarked) [Warfarin, reference compound] | > 32 |  | 
24 | CC12CCCc3coc(c31)C(=O)c1cc3c(cc12)C(=O)C1=C(NCCS1(=O)=O)C3=O (centres unmarked) [Adociaquinone B] | 0.025 | active IDO inhibitors | 
25 | CC1=CC(=O)c2ccccc2C1=O [Menadione (Vitamin K3), Menadione, reference compound] | 0.58 | shown to be an IDO inhibitor | manner of IDO inhibition (recombinant human IDO): non-competitive
26 | O=C1C=Cc2ccccc2C1=O [1,2 naphthoquinone, reference compound] | 3.4 |  | 
27 | O=C1C=CC(=O)c2c(O)cccc21 [Juglone, reference compound] | 0.048 |  | 
